In test [1] the test system is T. harzianum DAOM 190830. Format: cell-based, Trichoderma harzianum.
In test [2] the test system is E. coli. Format: cell-based.
The test system of test [3] is E. coli 287 (ATCC #11775). The format is cell-based.
Test [4] deals with E. coli MG1655. The format is cell-based.
Test [5] concerns E. coli strain 6320 (W3110). The format is cell-based. Note: key: '+' indicates that the organism tested was capable of utilizing the carbon source listed; '−' indicates that the organism tested was not capable of utilizing the carbon source listed; 'w' indicates weak positive reactions.
The test system of test [6] is E. coli strain 13673 (O157). The format is cell-based.
For test [7], the system named is E. coli strain 14443 (MG1655 (FB426)). Format: cell-based. Note: key: '+' indicates that the organism tested was capable of utilizing the carbon source listed; '−' indicates that the organism tested was not capable of utilizing the carbon source listed; 'w' indicates weak positive reactions.
Test [8] relates to E. coli strain 13675 (O157). Format: cell-based.
In test [9] the test system is E. coli strain 14445 (MG1655 himA). The format is cell-based.
The test system of test [10] is E. coli strain 6321 (MG1655). Format: cell-based. Note: key: '+' indicates that the organism tested was capable of utilizing the carbon source listed; '−' indicates that the organism tested was not capable of utilizing the carbon source listed; 'w' indicates weak positive reactions.
In test [11] the test system is E. coli strain 11547 (O157:H7). The format is cell-based.
For test [12], the system named is E. coli strain 6322 (EMG2 (K12, λF+)). The format is cell-based. Note: key: '+' indicates that the organism tested was capable of utilizing the carbon source listed; '−' indicates that the organism tested was not capable of utilizing the carbon source listed; 'w' indicates weak positive reactions.
Test [13] concerns E. coli strain 14444 (MG1655 xylA). Format: cell-based.
Test [14] concerns E. coli strain 13671 (O157:H? gur+). The format is cell-based.
The subject of test [15] is E. coli MG1655. Format: cell-based. The source holds these as a separate data set.

The record followed here is US6727076B2 (priority 1995, dated 2004).

Structures are written as SMILES.

For the compound `N[C@@H](CO)C(=O)O` [L-serine], the “carbon source utilization result” value in test [1] and in [3] was “positive” throughout. In test [2], the “use as carbon source” value is recorded as “can use”. Besides, the “suitability as nitrogen source (growth, purple color)” value (“suitability as nitrogen source” for short) in [4] is “not suitable”.

For `OC[C@H]1O[C@H](OCC2O[C@@H](O)[C@H](O)[C@@H](O)[C@@H]2O)[C@H](O)[C@@H](O)[C@H]1O` (stereo partly drawn) [D-melibiose], the “carbon source utilization result” value in test [1] and in test [3] was “positive” throughout. The carbon source utilization entry in test [5], in test [6], in test [7], in test [8], in test [9] and in test [10] was “+” in each case. Further, the carbon source utilization entry in test [11], in test [12], in test [13] and in test [14] was “+” in each case.

With `C[C@H](O)[C@@H](N)C(=O)O` [D-threonine], the “use as carbon source” value in test [2] is listed as “can use”.

As for `C[C@@H](O)[C@H](N)C(=O)O` [L-threonine], the “carbon source utilization, in words” value in test [9] and in [13] was “negative” each time. The “use as carbon source” value in test [2] was “can use”. Besides, the “suitability as nitrogen source” value in test [4] is “not suitable”.

Turning to `O=P(O)(O)O[C@H]1O[C@H](CO)[C@@H](O)[C@H](O)[C@H]1O` [Glucose-1-phosphate], the carbon source utilization result in [5], in [6], in test [7], in test [8], in [9] and in [10] was “+” each time. The carbon source utilization entry in test [11], in test [12], in test [13] and in test [14] was “+” each time. The “carbon source utilization result” value in test [3] is given as “positive”. Further, in test [15], the “suitability as phosphorus source (growth, purple color)” value is “positive”.

Consider `C[C@H](N)C(=O)O` [L-alanine], for which the “carbon source utilization result” value in [1] and in test [3] was “positive” each time. In addition, the “use as carbon source” value in [2] is reported as “can use”. The “suitability as nitrogen source” value in test [4] is given as “not suitable”.

Consider `NCCO` [2-amino ethanol], for which the carbon source utilization result in test [5], in [6], in test [7], in [8], in test [9] and in [10] was “−” in each case. For the same compound, the carbon source utilization result in test [11], in test [12], in test [13] and in [14] was “−” throughout. For the same compound, the “carbon source utilization result” value in test [3] is given as “positive/negative”. The “suitability as nitrogen source” value in test [4] was “not suitable”.

Regarding `N[C@@H](C(=O)O)[C@@H](O)[C@H](O)[C@H](O)CO` [D-glucosaminic acid], the carbon source utilization entry in test [5], in [6], in test [7], in test [8], in [9] and in [10] was “−” throughout. The carbon source utilization result in test [11], in test [12], in test [13] and in test [14] was “−” in each case. Further, the “carbon source utilization result” value in test [3] is “negative”.

For `C[C@@H](N)C(=O)O` [D-alanine], in test [2], the “use as carbon source” value was “can use”. The “carbon source utilization result” value in test [3] is reported as “positive”. Besides, the “suitability as nitrogen source” value in test [4] is “positive”.

Turning to `NC(=O)C[C@H](N)C(=O)O` [L-asparagine], the “carbon source utilization result” value in [1] and in test [3] was “positive” throughout. Also, the “use as carbon source” value in test [2] was “can use”. Besides, the “suitability as nitrogen source” value in [4] is “positive”.

Take `COC1OC(CO)C(O)C(O)C1O` (stereo not drawn) [β-methyl glucoside]: the “carbon source utilization result” value in [1] and in [3] was “positive” throughout. The carbon source utilization entry in test [5], in test [6], in test [7], in test [8], in test [9] and in test [10] was “+” throughout. Further, the carbon source utilization result in [11], in [12], in [13] and in test [14] was “+” throughout.

Take `N[C@H](CC(=O)O)C(=O)O` [D-aspartic acid]: in test [2], the “use as carbon source” value is “can use”. Also, in test [4], the “suitability as nitrogen source” value was “not suitable”.

With `OC[C@H]1O[C@H](O[C@H]2O[C@H](CO)[C@@H](O)[C@H](O)[C@H]2O)[C@H](O)[C@@H](O)[C@@H]1O` [D-trehalose], the “carbon source utilization result” value in test [1] and in test [3] was “positive” each time. Further, the carbon source utilization result in [5], in test [6], in test [7], in test [8], in test [9] and in [10] was “+” in each case. In addition, the carbon source utilization result in test [11], in test [12], in test [13] and in [14] was “+” in each case.

`NC(=O)CC[C@H](N)C(=O)O` [L-glutamine]: the “use as carbon source” value in test [2] is “can use”. In addition, the “suitability as nitrogen source” value in [4] is given as “positive”.

`O=C(O)[C@@H]1CCCN1` [L-proline]: the “carbon source utilization result” value in test [1] was “positive”. In test [2], the “use as carbon source” value is “can use”. Further, in test [13], the “carbon source utilization, in words” value was “negative”. In addition, the “suitability as nitrogen source” value in test [4] is “positive”.

As for `O=P(O)(O)OCC(O)CO` (racemic) [D,L-α-glycerol phosphate], the carbon source utilization result in test [5] is “−”; in test [6], “+”; in [7] it was “−”; in [8] it was “+”; in test [9], “−”; in test [10], “+”. The carbon source utilization entry is on record as “+” in [11], “+” in [12], “−” in [13] and “+” in test [14]. In [3], the “carbon source utilization result” value is reported as “positive”. In addition, the “suitability as phosphorus source (growth, purple color)” value in test [15] was “positive”.

Consider `N[C@@H](CCC(=O)O)C(=O)O` [L-glutamic acid], for which the “carbon source utilization result” value in [1] is on record as “positive”. Besides, in test [9], the “carbon source utilization, in words” value is reported as “negative”. Also, the “use as carbon source” value in [2] was “can use”. Moreover, the “suitability as nitrogen source” value in test [4] was “positive”.

Consider `N[C@H](CO)C(=O)O` [D-serine], for which the “use as carbon source” value in test [2] is listed as “can use”. Further, in test [3], the “carbon source utilization result” value is “positive”. Besides, the “suitability as nitrogen source” value in test [4] is on record as “not suitable”.

Regarding `O=C1O[C@@H]([C@H](O)CO)[C@H](O)[C@H]1O` [D-galactonic acid-γ-lactone], the carbon source utilization entry in [5] was “−”; in [6] it was “−”; in [7], “+”; in test [8], “−”; in test [9] it was “+”; in [10] it was “+”. The carbon source utilization entry is “−” in test [11], “+” in test [12], “+” in [13] and “−” in [14]. Further, the “carbon source utilization, in words” value in [6], in [8], in [11] and in [14] was “negative” each time. Moreover, in [3], the “carbon source utilization result” value is “positive”.

Regarding `O=C(O)Cc1ccc(O)cc1` [P-hydroxy phenylacetic acid], the carbon source utilization entry in test [5], in test [6], in test [7], in test [8], in test [9] and in test [10] was “−” each time. Also, the carbon source utilization entry in test [11], in test [12], in [13] and in [14] was “−” in each case. Further, the “carbon source utilization result” value in [3] was “negative”.

As for `N[C@@H](CC(=O)O)C(=O)O` [L-aspartic acid], the “use as carbon source” value in test [2] is recorded as “can use”. The “carbon source utilization result” value in [3] is recorded as “positive”. The “suitability as nitrogen source” value in test [4] is recorded as “positive”.
